Earlier results in patent US20070184105A1, “COMSPOSITION FOR STABLIZING EPIGALLOCATECHIN GALLATE (EGCG) IN WATER PHASE AND PREPARATION METHOD THEREOF” (DPI SOLUTIONS, INC., priority 2004, published 2007).

O=C(O[C@@H]1Cc2c(O)cc(O)cc2O[C@@H]1c1cc(O)c(O)c(O)c1)c1cc(O)c(O)c(O)c1 [EGCG, epigallocatechin gallate]
amount of EGCG that can be dissolved in water phase: about 4%
